According to US8759400B2, “Histone deacetylase inhibitors for enhancing activity of antifungal agents” (MethylGene Inc., priority 2005, dated 2014):
Where two headings read alike, the source gives them in different places.

Assays:
[1] = system: A. niger; experiment: Clinical isolates, CLSI M38-A broth microdilution and checkerboard; format: cell-based
[2] = system: C. tropicalis (750); experiment: MIC and checkerboard synergy with azoles; format: cell-based, Candida tropicalis
Protocol: For susceptibility studies, overnight cultures of both Candida species are diluted 1:100 in YEPD medium, grown for 4 h at 30° C., counted in a hemocytometer, then diluted to a concentration of 5×10^3 cells/ml. […] Synergy, determined by the checkerboard method, is defined as a decrease in MIC of antifungal agent that is more than additive of the MIC of the histone deacetylase inhibitor and the antifungal agent alone.

[3] = system: C. glabrata; experiment: Post-antifungal effect (PAFE); format: cell-based
Protocol: The post-antifungal effect (PAFE) is the time needed to achieve one log10 of cell growth after drug removal. One-two colonies are resuspended in 5 ml YPD. […] Cells are incubated at 30° C. overnight. In the morning, the optical density at 600 nm is read. Cells at A600 the closest but not surpassing 0.3 (early log-phase cells) are picked for further treatments as follows: […] Counts of CFU/ml are performed at time zero, before and after diluting the cells and at predetermined time points in order to determine the PAFE and the cidal potential of each drug combination (FIGS. 5-10).

[4] = system: C. lusitaniae; experiment: Clinical isolates, CLSI M27-A2 broth microdilution and checkerboard; format: cell-based
[5] = system: C. glabrata (ATCC 90030); experiment: MIC80 and checkerboard synergy with antifungal agents; format: cell-based, Candida glabrata; conditions: for Cpd 4 Conc for 4-fold synergy: C. glabrata (90030)
[6] = system: C. tropicalis; experiment: Fungicidal activity (CFU counts); format: cell-based; conditions: voriconazole with Compound 4, data not shown
[7] = system: C. dubliniensis; experiment: Clinical isolates, CLSI M27-A2 broth microdilution and checkerboard; format: cell-based
[8] = system: Trichosporon; experiment: Clinical isolates of other fungal species, checkerboard; format: cell-based
[9] = system: C. glabrata (ATCC 90030); format: cell-based
[10] = Cpd 4 with fluconazole, C. dubliniensis clinical isolates
[11] = Cpd 4 with voriconazole, C. dubliniensis clinical isolates
[12] = Trichosporon, **MIC of azole <0.06 μg/ml, too low to determine synergistic concentration

## O=C(Cc1ccc(CCCCc2ccccc2)cc1)NO [Cpd 4]
[1]; Cpd 4 with itraconazole
  ITR/Cpd 4 FIC: 0.5
[1]; Cpd 4 with voriconazole
  VOR/Cpd 4 FIC: 0.5
[1]; ITR checkerboard
  minimum Compound 4 concentration at which Compound 4 alone inhibited growth (number in brackets): 4.0 µg/mL
[1]; VOR checkerboard
  minimum Compound 4 concentration at which Compound 4 alone inhibited growth (number in brackets): 2.0 µg/mL
[2]; Candida tropicalis, read-out: Cpd 4 MIC
  MIC: > 50 µg/mL
[2]; with itraconazole
  Cpd 4 Conc for 4-fold synergy: 0.2 µg/mL
[2]; with ketoconazole
  Cpd 4 Conc for 4-fold synergy: 0.2 µg/mL
[2]; with voriconazole
  Cpd 4 Conc for 4-fold synergy: 0.39 µg/mL
[3]; Compound 4 combined with voriconazole, FIGS. 5 and 6C
  PAFE: ~1 h
[3]; itraconazole combined with Compound 4, FIG. 7
  PAFE: 0.5 h
[4]; Cpd 4 with fluconazole
  FLU/Cpd 4 FIC: <0.1
  FLU/Cpd 4 FIC interpretation: (S) (S = synergy)
[4]; Cpd 4 with voriconazole
  VOR/Cpd 4 FIC interpretation: (S) (S = synergy)
[4]; VOR checkerboard
  minimum Compound 4 concentration at which Compound 4 alone inhibited growth (number in brackets): 4 µg/mL
[5]; 4-fold decrease of fenpropimorph MIC, C. glabrata
  Conc. Cpd 4 for 4-fold decrease: 0.78 µg/mL
[5]; Nakaseomyces glabratus, ATCC90030, compound alone, C. glabrata (ATCC 90030), read-out: MIC80
  MIC: 6.25 µg/mL
[5]; against C. glabrata
  concentration at which Compound 4 synergizes with fenpropimorph: 2 µg/mL
[5]; with itraconazole
  Cpd 4 Conc for 4-fold synergy: 0.2 µg/mL
[5]; with ketoconazole
  Cpd 4 Conc for 4-fold synergy: 0.25 µg/mL
[5]; with voriconazole
  Cpd 4 Conc for 4-fold synergy: 0.39 µg/mL
[6]
  increase in voriconazole fungicidal activity: 1.1-1.2 fold
[7]; [10]
  FLU/Cpd 4 FIC: 2.0
  FLU/Cpd 4 FIC interpretation: (I) (I = indifference)
[7]; [11]
  VOR/Cpd 4 FIC: 2.0
  VOR/Cpd 4 FIC interpretation: (I) (I = indifference)
[7]; FLU checkerboard, C. dubliniensis clinical isolates
  minimum Compound 4 concentration at which Compound 4 alone inhibited growth (number in brackets): 0.03 µg/mL
[7]; VOR checkerboard, C. dubliniensis clinical isolates
  minimum Compound 4 concentration at which Compound 4 alone inhibited growth (number in brackets): 0.12 µg/mL
[7]; all 4 clinical isolates of C. dubliniensis
  activity of Compound 4 alone: potent activity alone
[8]; Trichosporon clinical isolates, read-out: Cpd 4 MIC
  MIC: 0.125 to 0.5 µg/mL
[8]; [12]
  Synergy with Cpd 4 (strains showing synergy/total strains tested) Itraconazole: 1/3**
  Synergy with Cpd 4 (strains showing synergy/total strains tested) Voriconazole: 0/3**
[9]; 4× synergistic MIC80 concentrations of Compound 4 and fluconazole
  frequency of resistant mutants: 2×10^−7
[9]; 4× the synergistic MIC80 of Compound 4 and itraconazole
  frequency of resistant mutants: 1×10^−7
[9]; Compound 4 and itraconazole at 2×MIC
  resistant mutants detected: no mutants were detected
